For one test, the target named is T1, KRas^G12D (Homo sapiens, UniProt P01116, G12D).
T1 construct: corresponding to amino acids 1-169, produced at Accelegan Inc; biotin (biotinylated); purchased Accelegan Inc
In words: KRas Binding Assay (TR-FRET displacement), KRas G12D. The following applies: TR-FRET tracer displacement. As to the method: (§1) This Example illustrates that exemplary compounds of the present invention bind to KRas and are capable of displacing a labeled tracer ligand occupying the KRas binding site. KRas^WT, KRas^G12A, KRas^G12C, KRas^G12D, KRas^G12R, KRas^G12S, KRas^G12V, KRas^G13D, or KRas^Q61H was used in the assay.
(§2) The ability of a compound to bind to KRas was measured using a TR-FRET displacement assay. Biotinylated KRas (corresponding to amino acids 1-169, produced at Accelegan Inc.) was incubated with custom made Cy5 labelled tracer, terbium streptavidin (Cisbio Inc.) and compound (1% DMSO final) in buffer (50 mM HEPES, pH 7.5, 5 mM MgCl2, 0.005% Tween-20 and 1 mM DTT). After a 60-minute incubation at room temperature, the reaction was measured using a BMG LABTECH CLARIO star Plus via TR-FRET. […] The POC values were fit to a 4-parameter IC50 equation and the IC50 value reported.

The target of another test is T2, KRas^G12V (Homo sapiens, UniProt P01116, G12V).
T2 construct: corresponding to amino acids 1-169, produced at Accelegan Inc; biotin (biotinylated); purchased Accelegan Inc
The test can be described thus: KRas Binding Assay (TR-FRET displacement), KRas G12V. The following applies: TR-FRET tracer displacement. As to the method:
as §1, §2
(In general: TR-FRET usually uses a lanthanide donor and a delayed reading to cut background.)

In the next test the target is T3, KRas^G12R (Homo sapiens, UniProt P01116, G12R).
T3 construct: corresponding to amino acids 1-169, produced at Accelegan Inc; biotin (biotinylated); purchased Accelegan Inc
In words: KRas Binding Assay (TR-FRET displacement), KRas G12R. The following applies: TR-FRET tracer displacement. As to the method: as §1, §2

For the next test, the target named is T4, KRas^WT (Homo sapiens, UniProt P01116).
T4 construct: corresponding to amino acids 1-169, produced at Accelegan Inc; biotin (biotinylated); purchased Accelegan Inc
In words: KRas Binding Assay (TR-FRET displacement), KRas WT. The following applies: TR-FRET tracer displacement. As to the method: as §1, §2

The target in the next test is T5, KRas^G13D (Homo sapiens, UniProt P01116, G13D).
T5 construct: corresponding to amino acids 1-169, produced at Accelegan Inc; biotin (biotinylated); purchased Accelegan Inc
In words: KRas Binding Assay (TR-FRET displacement), KRas G13D. The following applies: TR-FRET tracer displacement. On the procedure:
as §1, §2

For the next test, the target named is T6, KRas^Q61H (Homo sapiens, UniProt P01116, Q61H).
T6 construct: corresponding to amino acids 1-169, produced at Accelegan Inc; biotin (biotinylated); purchased Accelegan Inc
The test can be described thus: KRas Binding Assay (TR-FRET displacement), KRas Q61H. The following applies: TR-FRET tracer displacement. As to the method: as §1, §2

A further test deals with T7, KRas^G12A (Homo sapiens, UniProt P01116, G12A).
T7 construct: corresponding to amino acids 1-169, produced at Accelegan Inc; biotin (biotinylated); purchased Accelegan Inc
In words: KRas Binding Assay (TR-FRET displacement), KRas G12A. The following applies: TR-FRET tracer displacement. As to the method:
as §1, §2

In the next test the target is T8, KRas^G12C (Homo sapiens, UniProt P01116, G12C).
T8 construct: corresponding to amino acids 1-169, produced at Accelegan Inc; biotin (biotinylated); purchased Accelegan Inc
The test can be described thus: KRas Binding Assay (TR-FRET displacement), KRas G12C. The following applies: TR-FRET tracer displacement. On the procedure:
as §1, §2

For another test, the target named is T9, KRas^G12S (Homo sapiens, UniProt P01116, G12S).
T9 construct: corresponding to amino acids 1-169, produced at Accelegan Inc; biotin (biotinylated); purchased Accelegan Inc
In words: KRas Binding Assay (TR-FRET displacement), KRas G12S. The following applies: TR-FRET tracer displacement. As to the method:
as §1, §2

Test [1] relates to KRas-mediated Phosphorylation of ERK in AsPC-1 cells. In words: HTRF pERK assay, AsPC-1 cells. It is filed as cell-based. The following applies: Homo sapiens, ASPC1, 3 hrs compound incubation, read-out: Inhibition (HTRF IC50 nM) of KRas-mediated Phosphorylation of ERK, AsPC-1. As to the method:
(§3) • Day 1: Seed 6,000 cells/well-25 μl/well in 384-well white solid bottom plate; RPM1_10% FBS.
(§4) • 1. To harvest cells from flask using 0.05% Trypsin/EDTA solution. Add 10 mL of media to stop trypsinizing. Pipette the cells into a conical bottom 50 mL centrifuge tube and centrifuge 5 min×1000 rpm. • 2. Re-suspend the cell pellet in media, take a cell count, and then adjust the cell density using fresh media. • 3. Seed 6,000 cells into cell culture plate with 50 μL media. The • 4. Incubate cell plate overnight in a 37° C., 5% CO2 incubator.
(§5) • 1. Use Tecan to complete the compound addition. Compounds start from 10 uM top, 3-fold dilution, and 10 doses. The final DMSO concentration is 0.8%. Dispensed 0.2 uM Trametinib as Min control. • 2. Incubate cell plate for 3 hrs in the incubator. Detection with Cisbio pERK HTRF Kit • 1. Dilute 1 volume of 4× lysis buffer with 3 volumes of deionized water. Then, add 100× the blocking reagent. Keep lysis buffer on the ice. • 2. At the end of the compound treatment, flick-off the media. • 3. Add 35 μL of lysis buffer per well using a Multidrop Combi. Then place on a plate agitator shaking at 300 rpm at 4° C. for 40 mins. • 4. Make up the HTRF antibody buffer. For each assay plate, mix 50 μL of d2-conjugate antibody with 950 μL of detection buffer. Similarly, mix 50 μL of Cryptate antibody with 950 μL of detection buffer. Then mix the two diluted antibodies together. • 5. Dispense 3.4 μL the antibody buffer to wells of an empty assay plate. Seal the plate and centrifuge plate 30 sec×1000 rpm. • 6. At the end of the 4° C. lysis, centrifuge the lysate plates 3 mins×1500 rpm. • 7. Use the Bravo to transfer 13.6 μL of lysate from cell culture plate to assay plate. Then incubate assay plate for 2 hrs at room temperature. • 8. At the end of incubation, read plate on the Envision after centrifuging plate 30 sec×1000 rpm.

In test [2] the test system is KRas-mediated Phosphorylation of ERK in H727 cells. In words: HTRF pERK assay, H727 cells. Format: cell-based. The following applies: Homo sapiens, NCI-H727, 3 hrs compound incubation, read-out: Inhibition (HTRF IC50 nM) of KRas-mediated Phosphorylation of ERK, H727. As to the method: as §3, §4, §5

T5 sequence (P01116 1-169 isoform P01116-2 G13D): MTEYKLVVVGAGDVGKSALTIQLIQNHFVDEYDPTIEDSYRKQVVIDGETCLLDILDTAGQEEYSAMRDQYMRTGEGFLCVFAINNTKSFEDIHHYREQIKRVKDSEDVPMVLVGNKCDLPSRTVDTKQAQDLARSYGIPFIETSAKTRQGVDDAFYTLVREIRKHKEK
T2 sequence (P01116 1-169 isoform P01116-2 G12V): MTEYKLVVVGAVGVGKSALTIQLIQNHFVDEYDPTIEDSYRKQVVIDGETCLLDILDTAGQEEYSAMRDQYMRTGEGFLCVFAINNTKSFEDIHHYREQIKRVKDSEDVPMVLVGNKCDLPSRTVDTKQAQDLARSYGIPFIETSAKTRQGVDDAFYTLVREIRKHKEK
T7 sequence (P01116 1-169 isoform P01116-2 G12A): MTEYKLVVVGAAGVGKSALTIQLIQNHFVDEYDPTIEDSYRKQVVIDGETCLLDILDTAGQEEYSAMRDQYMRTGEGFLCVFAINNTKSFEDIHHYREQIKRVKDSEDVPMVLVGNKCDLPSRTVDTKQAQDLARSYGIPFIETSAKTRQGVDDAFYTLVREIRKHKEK
T4 sequence (P01116 1-169 isoform P01116-2): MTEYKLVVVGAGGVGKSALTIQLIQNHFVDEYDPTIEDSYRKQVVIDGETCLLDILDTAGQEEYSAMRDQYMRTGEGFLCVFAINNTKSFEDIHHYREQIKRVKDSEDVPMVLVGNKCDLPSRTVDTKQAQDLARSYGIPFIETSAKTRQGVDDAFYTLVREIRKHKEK
T1 sequence (P01116 1-169 isoform P01116-2 G12D): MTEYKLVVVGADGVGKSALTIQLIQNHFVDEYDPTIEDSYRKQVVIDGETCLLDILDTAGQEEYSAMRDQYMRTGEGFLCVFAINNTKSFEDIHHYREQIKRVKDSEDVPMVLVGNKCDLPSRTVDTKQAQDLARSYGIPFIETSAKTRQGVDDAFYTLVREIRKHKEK
T6 sequence (P01116 1-169 isoform P01116-2 Q61H): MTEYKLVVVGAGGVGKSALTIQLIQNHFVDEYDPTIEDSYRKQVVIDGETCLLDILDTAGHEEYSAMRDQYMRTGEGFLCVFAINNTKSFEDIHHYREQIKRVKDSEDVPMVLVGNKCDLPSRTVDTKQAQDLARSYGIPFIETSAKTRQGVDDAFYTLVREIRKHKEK
T3 sequence (P01116 1-169 isoform P01116-2 G12R): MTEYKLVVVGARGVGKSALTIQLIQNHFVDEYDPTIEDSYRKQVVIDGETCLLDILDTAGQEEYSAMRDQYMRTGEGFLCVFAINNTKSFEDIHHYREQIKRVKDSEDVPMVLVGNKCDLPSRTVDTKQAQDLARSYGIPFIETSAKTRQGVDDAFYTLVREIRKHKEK
T9 sequence (P01116 1-169 isoform P01116-2 G12S): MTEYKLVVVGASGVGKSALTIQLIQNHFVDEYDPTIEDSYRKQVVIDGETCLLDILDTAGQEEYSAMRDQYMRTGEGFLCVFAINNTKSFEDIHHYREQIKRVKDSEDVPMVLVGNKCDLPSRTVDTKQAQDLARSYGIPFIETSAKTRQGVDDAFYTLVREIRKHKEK
T8 sequence (P01116 1-169 isoform P01116-2 G12C): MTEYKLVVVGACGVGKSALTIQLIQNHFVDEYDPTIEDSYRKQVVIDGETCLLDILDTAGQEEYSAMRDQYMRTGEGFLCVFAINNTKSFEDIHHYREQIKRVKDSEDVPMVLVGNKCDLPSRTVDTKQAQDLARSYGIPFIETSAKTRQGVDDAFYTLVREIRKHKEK

Regarding `C[C@H](Oc1nc(-c2noc(C3(C)CCCc4sc(N)c(C#N)c43)n2)cc(N2CCCC3(C2)NC(=O)NC3=O)n1)[C@@H]1CCCN1C` (stereo partly drawn) [Example 2, 2-amino-4-(3-(6-(2,4-dioxo-1,3,7-triazaspiro[4.5]decan-7-yl)-2-((S)-1-((S)-1-methylpyrrolidin-2-yl)ethoxy)pyrimidin-4-yl)-1,2,4-oxadiazol-5-yl)-4-methyl-4,5,6,7-tetrahydrobenzo[b]thiophene-3-carbonitrile], the IC50 (commonly the point on the concentration scale where inhibition reaches its midpoint) at KRas^G12D came to 18 nM; on KRas^G12V, 6 nM; at KRas^G12R, 4 nM; on KRas^WT, 14 nM; on KRas^G13D, 37 nM; on KRas^Q61H, 36 nM. Besides, the IC50 at KRas^G12A turned out to be 49 nM; at KRas^G12C it was 54 nM; at KRas^G12S it was 41 nM.

With `C[C@H](Oc1nc(-c2noc(C3(C)CCCc4sc(N)c(C#N)c43)n2)cc(N2CCCC3(CNS(=O)(=O)N3)C2)n1)[C@@H]1CCCN1C` (stereo partly drawn) [Example 4, 2-amino-4-(3-(6-(2,2-dioxido-2-thia-1,3,7-triazaspiro[4.5]decan-7-yl)-2-((S)-1-((S)-1-methylpyrrolidin-2-yl)ethoxy)pyrimidin-4-yl)-1,2,4-oxadiazol-5-yl)-4-methyl-4,5,6,7-tetrahydrobenzo[b]thiophene-3-carbonitrile], the IC50 at KRas^G12D worked out at 6 nM; at KRas^G12V it was 5 nM; at KRas^G12R it was 4 nM; on KRas^WT it was 10 nM; on KRas^G13D it was 24 nM; at KRas^Q61H it was 26 nM. In addition, the IC50 at KRas^G12A stood at 29 nM; at KRas^G12C, 26 nM; at KRas^G12S it was 23 nM.

In the case of `C[C@H](Oc1nc(-c2noc(C3(C)CCCc4sc(N)c(C#N)c43)n2)cc(N2C[C@@H]3C[C@H](C2)[C@H](O)C3)n1)[C@@H]1CCCN1C` (stereo partly drawn) [Example 5, 2-amino-4-(3-(6-((1R,5R,6R)-6-hydroxy-3-azabicyclo[3.2.1]octan-3-yl)-2-((S)-1-((S)-1-methylpyrrolidin-2-yl)ethoxy)pyrimidin-4-yl)-1,2,4-oxadiazol-5-yl)-4-methyl-4,5,6,7-tetrahydrobenzo[b]thiophene-3-carbonitrile], the IC50 on KRas^G12D was 413 nM; on KRas^G12V, 62 nM; on KRas^G12R, 38 nM; at KRas^WT, 69 nM; at KRas^G13D it was 269 nM; on KRas^Q61H, 233 nM. Moreover, the 50% inhibitory concentration (IC50) is 250 nM on KRas^G12A, 313 nM on KRas^G12C and 265 nM on KRas^G12S.

As to `C[C@H](Oc1nc(-c2noc(C3(C)CCCc4sc(N)c(C#N)c43)n2)cc(N2CCCn3nc(C(=O)N(C)C)cc3C2)n1)[C@@H]1CCCN1C` (stereo partly drawn) [Example 6, 5-(6-(5-(2-amino-3-cyano-4-methyl-4,5,6,7-tetrahydrobenzo[b]thiophen-4-yl)-1,2,4-oxadiazol-3-yl)-2-((S)-1-((S)-1-methylpyrrolidin-2-yl)ethoxy)pyrimidin-4-yl)-N,N-dimethyl-5,6,7,8-tetrahydro-4H-pyrazolo[1,5-a][1,4]diazepine-2-carboxamide], the IC50 was 1830 nM on KRas^G12D; 746 nM on KRas^G12V; 669 nM at KRas^G12R; 474 nM at KRas^WT; 1080 nM at KRas^G13D; 1110 nM on KRas^Q61H. Moreover, the IC50 at KRas^G12A is 1590 nM; on KRas^G12C, 1110 nM; on KRas^G12S it was 1520 nM; in [1], 7720 nM; in test [2], above 10000 nM.

Consider `C[C@H](Oc1nc(-c2cc(C3(C)CCCc4sc(N)c(C#N)c43)sn2)cc(N2CCC[C@@](C)(O)C2)n1)[C@@H]1CCCN1C` (stereo partly drawn) [Example 7, 2-amino-4-(3-(6-((R)-3-hydroxy-3-methylpiperidin-1-yl)-2-((S)-1-((S)-1-methylpyrrolidin-2-yl)ethoxy)pyrimidin-4-yl)isothiazol-5-yl)-4-methyl-4,5,6,7-tetrahydrobenzo[b]thiophene-3-carbonitrile], for which the IC50 on KRas^G12D worked out at 127 nM; on KRas^G12V, 46 nM; on KRas^G12R, 23 nM; at KRas^WT, 129 nM; on KRas^G13D, 128 nM; at KRas^Q61H, 170 nM. The IC50 turned out to be 132 nM at KRas^G12A; 174 nM at KRas^G12C; 158 nM on KRas^G12S; 5840 nM in test [1]; 4470 nM in [2].

For the compound `C[C@H](Oc1nc(-c2cc(C3(C)CCCc4sc(N)c(C#N)c43)sn2)cc(N2C[C@@H]3C[C@H](C2)[C@H](O)C3)n1)[C@@H]1CCCN1C` (stereo partly drawn) [Example 8, 2-amino-4-(3-(6-((1R,5R,6R)-6-hydroxy-3-azabicyclo[3.2.1]octan-3-yl)-2-((S)-1-((S)-1-methylpyrrolidin-2-yl)ethoxy)pyrimidin-4-yl)isothiazol-5-yl)-4-methyl-4,5,6,7-tetrahydrobenzo[b]thiophene-3-carbonitrile], the IC50 on KRas^G12D was found to be 505 nM; on KRas^G12V, 96 nM; on KRas^G12R, 59 nM; on KRas^WT, 160 nM; at KRas^G13D it was 167 nM; at KRas^Q61H it was 224 nM. Besides, the IC50 at KRas^G12A is 204 nM; at KRas^G12C it was 275 nM; at KRas^G12S it was 296 nM; in test [1], 7400 nM; in test [2] it was 3380 nM.

For `C[C@H](Oc1nc(-c2cc(C3(C)CCCc4sc(N)c(C#N)c43)sn2)cc(N2CCCC3(C2)NC(=O)NC3=O)n1)[C@@H]1CCCN1C` (stereo partly drawn) [Example 11, 2-amino-4-(3-(6-(2,4-dioxo-1,3,7-triazaspiro[4.5]decan-7-yl)-2-((S)-1-((S)-1-methylpyrrolidin-2-yl)ethoxy)pyrimidin-4-yl)isothiazol-5-yl)-4-methyl-4,5,6,7-tetrahydrobenzo[b]thiophene-3-carbonitrile], the half-inhibitory concentration (IC50) is 93 nM at KRas^G12D; 76 nM on KRas^G12V; 34 nM on KRas^G12R; 326 nM on KRas^WT; 190 nM at KRas^G13D; 263 nM at KRas^Q61H. Further, the IC50 at KRas^G12A turned out to be 240 nM; at KRas^G12C it was 262 nM; at KRas^G12S, 188 nM.

Take `C[C@H](Oc1nc(-c2cc(C3(C)CCCc4sc(N)c(C#N)c43)sn2)cc(N2CCCn3nc(C(=O)N(C)C)cc3C2)n1)[C@@H]1CCCN1C` (stereo partly drawn) [Example 12, 5-(6-(5-(2-amino-3-cyano-4-methyl-4,5,6,7-tetrahydrobenzo[b]thiophen-4-yl)isothiazol-3-yl)-2-((S)-1-((S)-1-methylpyrrolidin-2-yl)ethoxy)pyrimidin-4-yl)-N,N-dimethyl-5,6,7,8-tetrahydro-4H-pyrazolo[1,5-a][1,4]diazepine-2-carboxamide]: the IC50 on KRas^G12D turned out to be 623 nM; at KRas^G12V it was 163 nM; at KRas^G12R, 156 nM; at KRas^WT it was 417 nM; at KRas^G13D it was 584 nM; at KRas^Q61H it was 533 nM. Moreover, the IC50 was determined as 551 nM on KRas^G12A, 457 nM at KRas^G12C and 596 nM on KRas^G12S.
